# Measured values as given in ChEMBL document CHEMBL1124919, “Synthesis and biochemical studies of 7-substituted 4,6-androstadiene-3,17-diones as aromatase inhibitors” (J Med Chem, 1990).
# Tested on: not listed separately
# Assay: Apparent Km value was determined
# Assay type: ADME
row,Structure (SMILES),Km [µM]
1,C[C@]12CCC(=O)C=C1CC[C@@H]1[C@@H]2CC[C@]2(C)C(=O)CC[C@@H]12 [ANDROSTENEDIONE],0.051

# Target: T1, Aromatase (Homo sapiens, UniProt P11511)
# T1 sequence (P11511 whole entry): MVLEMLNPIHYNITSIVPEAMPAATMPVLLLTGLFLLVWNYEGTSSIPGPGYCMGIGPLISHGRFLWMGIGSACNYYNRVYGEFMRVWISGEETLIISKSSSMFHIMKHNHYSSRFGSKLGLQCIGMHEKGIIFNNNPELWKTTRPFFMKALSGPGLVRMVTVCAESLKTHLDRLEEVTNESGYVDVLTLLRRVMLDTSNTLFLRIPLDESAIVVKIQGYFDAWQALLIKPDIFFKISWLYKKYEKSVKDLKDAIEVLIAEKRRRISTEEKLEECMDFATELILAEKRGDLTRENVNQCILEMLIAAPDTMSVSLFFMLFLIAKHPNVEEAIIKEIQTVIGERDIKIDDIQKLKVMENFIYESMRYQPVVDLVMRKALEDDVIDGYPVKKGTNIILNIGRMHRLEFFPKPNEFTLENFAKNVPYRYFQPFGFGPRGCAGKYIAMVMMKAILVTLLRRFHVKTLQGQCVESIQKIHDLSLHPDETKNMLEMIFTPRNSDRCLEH
# Assay: In vitro inhibition of human placental cytochrome P450 19A1
row,Structure (SMILES),Ki [nM]
1,CC12CCC3C(C(Cc4ccc(N)cc4)=CC4=CC(=O)CCC43C)C1CCC2=O (configuration not stated),88
2,CC12CCC3C(C(Cc4ccc([N+](=O)[O-])cc4)=CC4=CC(=O)CCC43C)C1CCC2=O (configuration not stated),94
3,CC12CCC3C(C(c4ccccc4)=CC4=CC(=O)CCC43C)C1CCC2=O (configuration not stated),1420
4,CC12CCC3C(C(CCc4ccc([N+](=O)[O-])cc4)=CC4=CC(=O)CCC43C)C1CCC2=O (configuration not stated),95
5,CC12CCC3C(C(CCc4ccccc4)=CC4=CC(=O)CCC43C)C1CCC2=O (configuration not stated),174
6,CC12CCC3C(C(CCc4ccc(N)cc4)=CC4=CC(=O)CCC43C)C1CCC2=O (configuration not stated),88
